Source: patent US8865653B2, “Method of treatment for immunogenic treatment resistant cancer” (Institut Gustave Roussy, priority 2010, dated 2014)

What was measured:
[1] = tested on: CT26 (siATG5, siATG6, siATG7); test: Prophylactic immunization with autophagy-deficient dying CT26 cells ± apyrase inhibitor; type: in vivo; settings: anthracycline-treated cells injected s.c., immunocompetent mice
Method: One million CT26 knock down with small interfering RNA specific for ATG5, ATG6 (Beclin 1 BCN1), or ATG7 or controls siCO were treated with the anthracyclin mitoxanthrone (MTX) for 18 hours, washed and inoculated in one flank of a naïve animal (BALB/C mouse). Positive controls are CT26 treated with MTX and negative controls are CT26 treated with PBS. Ten days later, mice were rechallenged with 3× the minimal tumorigenic dose of live CT26 cells on the opposite flank and monitoring of tumor growth was recorded with a caliper (product of perpendicular diameters). The % of tumor free animals are shown in the graph and the number of animals per group is indicated (n=20). Statistical analyses were performed with Anova test (Fisher's exact method) with significant results at p<0.05.
Idem as in FIG. 40 but the dying cells (siCO or siATG7) were admixed (or not) with apyrase inhibitors (AI) (apyrases are enzymes hydrolyzing ATP in the extracellular milieu) and/or suramine (SUR) or oxidized ATP (OXY), both inhibitors of purinergic receptors at the conventional dosing (previously reported). The % of tumor free animals are shown in the graph and the number of animals per group is indicated (n=20). Statistical analyses were performed with Anova test (Fisher's exact method) with significant results at p<0.05.

[2] = tested on: CT26 (ATG5 or ATG7 knock down, WT); test: Chemotherapy of established autophagy-deficient CT26 tumors ± apyrase inhibitor; type: in vivo, mice
Method: One million CT26 knock down with small interfering RNA specific for ATG5 or ATG7 or controls WT were treated with the anthracyclin mitoxanthrone (MTX) at 8 days post-implantation in one flank of a naïve animal (BALB/C mouse). […] Monitoring of tumor growth was recorded with a caliper (product of perpendicular diameters) and is depicted for 5 mice/group. Statistical analyses were performed with Anova test (Fisher's exact method) with significant results at p<0.05.

[3] = tested on: MCA205; test: Pro-apoptotic effect on MCA205, DiOC6(3) fluorescence; type: cell-based, mouse; settings: alone or in combination with anthracyclines (DX, MTX)
Method: (B) The impact of AHR pharmacological inhibitor CH-223191 on pro-apoptotic effect of DX or MTX against MCA205 was measured. A reduction in mitochondrial membrane potential indicated by decreased DiOC6(3) fluorescence was used to show cell apoptosis. The experiment was performed twice with identical results.

[4] = tested on: MCA205 sarcoma; test: Anthracycline chemotherapy of established MCA205 sarcoma (intratumoral DX); type: in vivo, mice; settings: CH-223191 daily i.p. for 4 days from day of DX
Method: 0.8 million MCA205 or CT26 or TS/A tumor cells were inoculated subcutaneously near the thigh into C57Bl/6 (H-2^b) or BALB/c (H-2^d) mice. Anthracyclines-based chemotherapy was performed in MCA205 and CT26 models by intratumoral injecting DX (2 mM, […]) when tumors reached the size 25-40 mm^2. Radiotherapy was performed by local X-ray irradiation (10 Gy, RT250, Phillips) at the unshielded tumor area when TS/A tumor reached the size 40-60 mm^2.

[5] = target: AHR (Homo sapiens, UniProt P35869); settings: pure antagonist of AHR; cited from earlier work
AHR, sequence (P35869 11-848, species assumed): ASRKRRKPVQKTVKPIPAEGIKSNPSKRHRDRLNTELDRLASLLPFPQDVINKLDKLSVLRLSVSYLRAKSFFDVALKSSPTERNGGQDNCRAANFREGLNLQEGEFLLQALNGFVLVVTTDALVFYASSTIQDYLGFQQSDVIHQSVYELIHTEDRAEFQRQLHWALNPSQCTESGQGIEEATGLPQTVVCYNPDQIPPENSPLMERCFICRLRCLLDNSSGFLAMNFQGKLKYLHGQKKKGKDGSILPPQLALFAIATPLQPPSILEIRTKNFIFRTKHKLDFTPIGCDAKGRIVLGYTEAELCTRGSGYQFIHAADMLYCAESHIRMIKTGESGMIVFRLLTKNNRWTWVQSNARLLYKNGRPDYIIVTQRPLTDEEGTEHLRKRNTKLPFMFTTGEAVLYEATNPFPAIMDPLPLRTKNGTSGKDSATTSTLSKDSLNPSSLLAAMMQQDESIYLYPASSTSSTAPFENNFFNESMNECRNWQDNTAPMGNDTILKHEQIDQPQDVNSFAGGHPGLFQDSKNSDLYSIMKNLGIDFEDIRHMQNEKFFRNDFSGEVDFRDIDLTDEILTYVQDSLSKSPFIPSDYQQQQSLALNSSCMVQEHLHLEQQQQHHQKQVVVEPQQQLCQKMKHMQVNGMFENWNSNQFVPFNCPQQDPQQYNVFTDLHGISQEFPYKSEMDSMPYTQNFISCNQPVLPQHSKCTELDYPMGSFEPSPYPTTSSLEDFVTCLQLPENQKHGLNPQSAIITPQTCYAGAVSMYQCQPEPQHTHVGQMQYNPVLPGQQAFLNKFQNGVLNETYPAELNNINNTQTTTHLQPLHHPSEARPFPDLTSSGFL

[6] = tested on: U2OS cells stably expressing CRT-GFP; test: CRT-GFP redistribution (granularity, nuclear shape) by automated microscopy; ICCB library screen; type: cell-based, human; settings: for CRT-GFP granularity (relocation to peripheral granular distribution): 1 μM MTX, 150 μM CDDP, 300 μM OXP; for CRT-GFP granularity / CRT exposure in library screen in the presence vs absence of CDDP: ICCB library, 4 h, with CDDP
Method: The data is depicted as mean±s.e.m. of quadruplicates from a representative experiment. (C) Immunofluorescene was conducted on CRT-GFP expressing cells by means of staining with anti-CRT antibody and subsequent confocal image acquisition. (D) CRT has been cloned in frame n-terminal to a HaloTag® sequence followed by a KDEL ER retention signal. (E) The impermeable HaloTag® ligand forms covalent bonds exclusively with surface exposed HaloTag®-CRT fusion protein, whereas intracellular HaloTag®-CRT remains undetected.
Compounds from the ICCB known bioactive compounds library have been tested for their capacity to induce CRT-exposure. […] The cells were incubated for 4 h and were acquired by means of automated microscopy. The data is depicted as dot plots and representative images (B).
After washing with PBS 4 viewfields per well were acquired by means of a BD pathway 855 automated microscope.

[7] = tested on: MCA205; test: Tumor vaccination with MTX-treated MCA205 and rechallenge; type: in vivo; settings: s.c. injection of MTX treated MCA205 cells, WT mice (not athymic nude mice)
Method: MCA205 cells were treated with 2 μM MTX for 18 hrs, washed thoroughly and injected into left flank subcutaneously at 0.3 million/mouse. PBS was used as control. Mice were rechallenged with 5×10^4 live MCA205 cells in the right flank 7 days later. Tumor growth was monitored every 2-3 days.

[8] = tested on: CT26 overexpressing LC3-GFP; test: Induction of autophagy in vivo, LC3-GFP redistribution; parameters: species or system mice; settings: i.v., tumors withdrawn 48 hours post-therapy
Method: After 8 days of tumor implantation (CT26 mouse colon cancer genetically modified to overexpress LC3-GFP in BALB/c immunocompetent mice), oxaliplatin or mitoxanthrone was inoculated systemically (i.v.). Tumors were withdrawn at 48 hours post-therapy and immunofluorescence stainings were performed on frozen sections of tumor tissues to visualize nuclei (in Hoechst blue), and autophagosomes in green (LC3-GFP). […] The lower panel is a graph summarizing enumeration of autophagosomes positive cells in 10 independent sections per tumor and animal (each dot represents one tumor). Statistical analyses were performed with Anova test (Fisher's exact method) with significant results at p<0.05.

[9] = tested on: U2OS cells; test: US Drug library screen: CRT-GFP, HMGB1-GFP, quinacrine; settings: 1 μM, 4 h / 24 h / 16 h
[10] = tested on: CT26 and MCA cells; test: CRT exposure in single or cotreated cells (MitoC, cardiac glycosides); type: cell-based, mouse
Method: (B) CRT exposure was analysed in the cells that were single or cotreated as indicated by means of CRT surface staining and FACS quantification.

[11] = tested on: MCA205 cells; test: In vivo anti-tumor vaccination with MitoC / Digoxin treated MCA205 cells; parameters: species or system mice; settings: 20 μM MitoC
[12] = tested on: U2OS cells; test: Analysis of surface exposed CRT (HaloTag ligand, anti-CRT immune staining)
[13] = tested on: U2OS cells; type: cell-based
Method: The data is depicted as representative images (A) and (B) normalized Bax-GFP granularity values.
The data represents mean±s.e.m. of quadruplicates from a representative experiment. […] 16 h after treatment, cell death was monitored by simultaneous staining with 3,3 dihexyloxacarbocyanine iodide (DiOC6(3)) and propidium iodide (PI), and the percentage of dying (DiOC6(3)^low PI^−, open bars) and dead (DiOC6(3)^low PI^+, closed bars) cells was determined by cytofluorometry.
Cell death was quantified by cytofluorometric analysis using a FACS Vantage (Becton Dickinson, Mountain View, USA) as described previously (REF). Thus, cells were stained with 40 nM 3,3 dihexyloxacarbocyanine iodide (DiOC6(3); Molecular Probes, Eugene, Oreg., USA) for 30 min at 37° C. and concomitantly with 1 μg/ml propidium iodide (PI; Sigma Aldrich) for 30 min at 37° C. to determine the mitochondrial transmembrane potential. Data were statistically evaluated using CellQuest Pro software (Becton Dickinson, Mountain View, USA).

[14] = tested on: eIF2α; test: Immunoblotting of eIF2α / PERK phosphorylation; type: cell-based
Excerpt: (E) The phosphorylation status of eIF2α has been assessed by immunoblotting against the phosphoneoepitope Ser51 of eIF2α by means of a monoclonal antibody. A polyclonal antibody has been used to visualize whole eIF2α protein levels.

[15] = tested on: EL4 thymoma; test: Chemotherapy and Dendrophilin treatment of established EL4 tumors; type: in vivo, mice; settings: oxaliplatin 5 mg per kg i.p.
Method: WT or loss-of-function mice were injected in the right flank with 1×10^6 of EL4 or CT26 or MCA205 cells. Mice were then randomly assigned into treatment groups of 4-6 mice each. […] Two and/or four days after chemo treatment, mice were treated with Dendrophilin or LPS (2 μg in 100 μl NaCl per mouse i.v or i.t). […] Tumor growths were monitored every 3-4 days using a caliper.

[16] = tested on: MCA205 cells; test: In vivo anti-tumor vaccination with treated MCA205 cells (Example 3)
Method: (F) MCA205 cells have been used for tumor vaccination in vivo. […] The mice have been rechallenged after 6 days with living cells and the tumor growth is depicted in the survival plot (n=10).
Tumor growth was evaluated for at least 50 days.

[17] = tested on: U2OS cells; test: ATP release assays (quinacrine, luciferin-based); type: cell-based, human; settings: 16 h post-treatment, intracellular and extracellular ATP
Method: In short, cells were labeled with 1 μM quinacrine in Krebs-Ringer solution (125 mM NaCl, 5 mM KCl, 1 mM MgSO4, 0.7 mM KH2PO4, 2 mM CaCl2, 6 mM glucose and 25 mM Hepes, pH 7.4) for 30 min at 37° C.
After incubation in quinacrine solution (as described above), cells were rinsed and resuspended in PBS containing 1 μg/ml PI. The samples were analyzed by means of a FACS Vantage (Becton Dickinson) and the data was statistically evaluated using the CellQuest Pro software (BD Biosciences).
After cell death induction, extracellular ATP was measured by luciferin-based ENLITEN ATP Assay (Promega, Madison, USA) following the manufacturer's instructions. Intracellular ATP was measured using an ATP Assay kit (Calbiochem, Darmstadt, Germany) based on luciferin-luciferase conversion following the manufacturer's instructions. For assessment of the chemoluminescent signal, the plates were read in a Fluostar luminometer (BMG Labtech).

[18] = tested on: MCA205 cells; settings: Martins I et al, Oncogene 2010; cited from earlier work
[19] = MTX at 8 days post-implantation

CCN(CC)c1ncnc2c1ncn2C1OC(COP(=O)(O)OP(=O)(O)C(Br)(Br)P(=O)(O)O)C(O)C1O [ARL67156, 6-N,N-Diethyl-D-beta-gamma-dibromomethylene adenosine triphosphate]
immunogenicity of autophagy-deficient dying tumour cells with co-injected apyrase inhibitor [1]: defect in immunogenicity can be restored | response of autophagy-deficient tumours to anthracycline chemotherapy with intratumoural apyrase inhibitor ([2]; tumours established for 8 days): defect is again overcome

Cc1ccccc1N=Nc1ccc(NC(=O)c2ccnn2C)c(C)c1 [CH-223191, 2-methyl-2H-pyrazole-3-carboxylic acid (2-methyl-4-o-tolylazo-phenyl)-amide]
cell-autonomous effects on the tumor cells [3]: no cell-autonomous effects on the tumor cells | effect on efficacy of DX on established cancers in vivo [4]: markedly reduced the efficacy of DX | concentration up to which no AHR agonist actions [5]: > 100 µM

O=C1c2c(O)ccc(O)c2C(=O)c2c(NCCNCCO)ccc(NCCNCCO)c21 [MTX, mitoxantrone]
CRT-GFP granularity (relocation to peripheral granular distribution) [6]: only observed after treatment of the cells with MTX or OXP | protection against rechallenge with live MCA205 tumor cells [7]: could protect WT mice | redistribution of LC3-GFP in autophagosomes in tumors [8]: Redistribution of LC3-GFP in autophagosomes can be visualized post-therapy | growth of ATG5 and ATG7 deficient tumors under MTX [2, 19]: not controlled by MTX therapy | growth of CT26 WT tumors under MTX [2, 19]: significantly respond | rank in screen for exposing CRT and emitting HMGB1 and ATP [9]: most potent in exposing CRT, and emitting HMGB1 and ATP

CO[C@@]12[C@H](COC(N)=O)C3=C(C(=O)C(C)=C(N)C3=O)N1C[C@@H]1N[C@@H]12 [MitoC, mitomycin C]
CRT exposure, MitoC by its own [10]: incapable of exposing CRT | vaccinating effect, MitoC alone [11]: failed to confer any vaccinating effect

O=C1[O][Pt]2([NH][C@@H]3CCCC[C@H]3[NH]2)[O]C1=O [OXP, oxaliplatin]
surface exposure of CRT-HaloTag ([12]; cell-impermeable HaloTag ligand, microscopy and cytofluorometry): unless they were treated with immunogenic cell death inducers such as OXP | surface immunofluorescence staining of CRT ([12]; non-permeabilized CRT-GFP cells): actually extruded CRT | CRT-GFP granularity (relocation to peripheral granular distribution) [6]: only observed after treatment of the cells with MTX or OXP | IC50 ([13]; short-term experiments, loss of the mitochondrial transmembrane potential ΔΨm, read-out: IC50, imminent cell death): ~600 µM | mitochondrial perturbations (ΔΨm dissipation, Bax-GFP relocation) ([13]; used at their IC50): induced similar mitochondrial perturbations | eIF2α phosphorylation on serine 51 ([14]; phospho-neoepitope-specific antibody): much more efficient than CDDP | activating phosphorylation of PERK ([14]; shortly after treatment): detectable shortly after treatment with OXP | antitumor effects of chemotherapy alone [15]: only mild effects | protective anticancer immune response after vaccination with drug-treated MCA205 cells ([16]; s.c. injection, rechallenge with live tumor cells): readily induce such a tumor-protective response | ATP release [17]: induced ATP release | redistribution of LC3-GFP in autophagosomes in tumors [8]: Redistribution of LC3-GFP in autophagosomes can be visualized post-therapy

C/C=C(/C)C(=O)O[C@H]1C(C)=C2[C@H]([C@@H]1OC(=O)CCCCCCC)[C@@](C)(OC(C)=O)C[C@H](OC(=O)CCC)[C@@]1(O)[C@H]2OC(=O)[C@@]1(C)O [THAPS, thapsigargin]
CRT-GFP granularity, CRT-HaloTag exposure, native CRT exposure, THAPS alone ([12]; in the absence of CDDP): comparably inefficient | CRT-GFP granularity, CRT-HaloTag exposure, native CRT exposure, THAPS with CDDP ([12]; in the presence of CDDP): highly efficient in the presence of CDDP | CRT-GFP granularity / CRT exposure in library screen in the presence vs absence of CDDP [6]: particularly efficient in inducing CRT-GFP granularity in the presence (but not in the absence) of CDDP | CRT-GFP granularity / CRT exposure in library screen in the presence vs absence of CDDP ([6]; listed as thapsigargin): the sole agent (out of 450 compounds) to induce CRT exposure in the presence of cisplatin but not in the absence of cisplatin | cytotoxic effects [13]: exhibited no major cytotoxic effects | effect on toxicity of CDDP [13]: did not increase the toxicity of CDDP | anticancer immune response, vaccine of dying cells generated with CDDP combined with THAPS ([16]; MCA205, rechallenge with live cells): elicited an effective anticancer immune response in vivo | immunogenic cell death when combined with cisplatin [18]: could induce immunogenic cell death when combined with cisplatin
